From patent US4337199A, “Antibiotic β-lactam compounds, production thereof, and their use as antimicrobial agent” (Sanraku-Ocean Co., Ltd., priority 1978, dated 1982)
In brackets after ≈: the same amount, converted by molar mass.

Legend:
Experiment in all cases: minimum inhibitory concentration, agar dilution assay
Assay type in all cases: cell-based
Alcaligenes faecalis A 1 = conditions: A1, agar dilution, 35° C., 20 hours, read-out: minimum inhibitory concentration
Procedure: (§1) The antibiotic activities shown in Tables I-1 to I-8 above were determined in the following manner.
(§2) The minimum inhibitory concentrations of the compounds of formula (I-a-1) or (I-b-1) in Tables I-1 to I-7 and the known compounds in Table I-8 on the various microorganisms shown in the above tables were measured by an agar dilution assay method using a brain heart infusion agar medium "Difco" (a product of Difco Laboratories Inc.)
(§3) A sample of the test compound was dissolved in sterile distilled water and diluted to prepare a two-fold dilution series of the compound solution. In a petri plate of 9 cm diameter, 1 ml of the compound solution was added to 9 ml of molten sterile heart infusion agar medium (Difco Laboratories Inc.) at about 60° C. to prepare the compound-containing agar plate. An overnight culture of each test organism indicated in the above table which was prepared by stationary cultivation in Trypto-Soy broth (Eiken Chemi. Co., Ltd.) at 35° C. for 18 to 20 hours, was diluted with the Trypto-Soy broth to give approximately 10^8 cells/ml and the diluted inoculum was inoculated onto the compound-containing agar plates. After cultivating the plates at 35° C. for 20 hours, the growth of the organism was observed. The minimum concentration of the compound at which no growth of the microorganism was noted was determined, and defined as the minimum inhibitory concentration of the test compound.

[1] = test system: Bacillus subtilis ATCC 6633; conditions: ATCC6633, agar dilution, 35° C., 20 hours, read-out: minimum inhibitory concentration
Procedure: as §1, §2, §3

[2] = test system: Citrobacter freundii GN 346; conditions: GN346, agar dilution, 35° C., 20 hours, read-out: minimum inhibitory concentration
Procedure: as §1, §2, §3

[3] = test system: Comamonas terrigena B-996; conditions: B996, agar dilution, 35° C., 20 hours, read-out: minimum inhibitory concentration
Procedure: as §1, §2, §3

[4] = test system: Enterobacter aerogenes E19; conditions: Klebsiella aerogenes, E19; agar dilution, 35° C., 20 hours; read-out: minimum inhibitory concentration
Procedure: as §1, §2, §3

Enterobacter cloacae 45 = conditions: Enterobacter cloacae, 45; agar dilution, 35° C., 20 hours; read-out: minimum inhibitory concentration
Procedure: as §1, §2, §3

Enterobacter sp. E8 = conditions: SP.E8, agar dilution, 35° C., 20 hours, read-out: minimum inhibitory concentration
Procedure: as §1, §2, §3

Escherichia coli K-12 = conditions: K12, agar dilution, 35° C., 20 hours, read-out: minimum inhibitory concentration
Procedure: as §1, §2, §3

Escherichia coli RGN 823 = conditions: RGN823, agar dilution, 35° C., 20 hours, read-out: minimum inhibitory concentration
Procedure: as §1, §2, §3

[5] = test system: Klebsiella pneumoniae K-13; conditions: K13, agar dilution, 35° C., 20 hours, read-out: minimum inhibitory concentration
Procedure: as §1, §2, §3

Proteus mirabilis P6 = conditions: P6, agar dilution, 35° C., 20 hours, read-out: minimum inhibitory concentration
Procedure: as §1, §2, §3

Proteus rettgeri P7 = conditions: Providencia rettgeri, P7; agar dilution, 35° C., 20 hours; read-out: minimum inhibitory concentration
Procedure: as §1, §2, §3

Proteus sp. P22 = conditions: agar dilution, 35° C., 20 hours; read-out: minimum inhibitory concentration
Procedure: as §1, §2, §3

Proteus vulgaris GN76 = conditions: GN76, agar dilution, 35° C., 20 hours, read-out: minimum inhibitory concentration
Procedure: as §1, §2, §3

Providencia sp. P8 = conditions: SP.P8, agar dilution, 35° C., 20 hours, read-out: minimum inhibitory concentration
Procedure: as §1, §2, §3

[6] = test system: Pseudomonas aeruginosa IFO3445; conditions: IFO3445, agar dilution, 35° C., 20 hours, read-out: minimum inhibitory concentration
Procedure: as §1, §2, §3

[7] = test system: Pseudomonas aeruginosa NCTC10490; conditions: NCTC10490, agar dilution, 35° C., 20 hours, read-out: minimum inhibitory concentration
Procedure: as §1, §2, §3

Sarcina lutea = conditions: Micrococcus luteus; agar dilution, 35° C., 20 hours; read-out: minimum inhibitory concentration
Procedure: as §1, §2, §3

Serratia marcescens S18 = conditions: S18, agar dilution, 35° C., 20 hours, read-out: minimum inhibitory concentration
Procedure: as §1, §2, §3

Serratia marcescens T55 = conditions: T55, agar dilution, 35° C., 20 hours, read-out: minimum inhibitory concentration
Procedure: as §1, §2, §3

[8] = test system: Staphylococcus aureus FDA 209P; conditions: FDA209P, agar dilution, 35° C., 20 hours, read-out: minimum inhibitory concentration
Procedure: as §1, §2, §3

[9] = test system: Staphylococcus aureus Russell; conditions: agar dilution, 35° C., 20 hours, read-out: minimum inhibitory concentration
Procedure: as §1, §2, §3

[10] = test system: Staphylococcus aureus Smith; conditions: agar dilution, 35° C., 20 hours, read-out: minimum inhibitory concentration
Procedure: as §1, §2, §3

[11] = test system: Staphylococcus epidermidis; conditions: agar dilution, 35° C., 20 hours, read-out: minimum inhibitory concentration
Procedure: as §1, §2, §3

Structure (SMILES)	MIC (Alcaligenes faecalis A 1) [µg/mL]	MIC [1] [µg/mL]	MIC [2] [µg/mL]	MIC [3] [µg/mL]	MIC [4] [µg/mL]	MIC (Enterobacter cloacae 45) [µg/mL]	MIC (Enterobacter sp. E8) [µg/mL]	MIC (Escherichia coli K-12) [µg/mL]	MIC (Escherichia coli RGN 823) [µg/mL]	MIC [5] [µg/mL]	MIC (Proteus mirabilis P6) [µg/mL]	MIC (Proteus rettgeri P7) [µg/mL]	MIC (Proteus sp. P22) [µg/mL]	MIC (Proteus vulgaris GN76) [µg/mL]	MIC (Providencia sp. P8) [µg/mL]	MIC [6] [µg/mL]	MIC [7] [µg/mL]	MIC (Sarcina lutea) [µg/mL]	MIC (Serratia marcescens S18) [µg/mL]	MIC (Serratia marcescens T55) [µg/mL]	other results
CC(C)C1C(=O)N2C(C(=O)O)=C(Sc3ccccc3)CC12 (stereo not drawn)	6.25 (≈ 20.6 µM)	0.1 (≈ 0.33 µM)	> 100	0.007 (≈ 0.0231 µM)	> 100	> 100	> 100	50 (≈ 165 µM)	50 (≈ 165 µM)	> 100	> 100	100 (≈ 330 µM)	100 (≈ 330 µM)	> 100	25 (≈ 82.4 µM)	25 (≈ 82.4 µM)	6.25 (≈ 20.6 µM)	0.013 (≈ 0.0429 µM)	> 100	> 100	MIC [8]: 0.013 µg/mL (≈ 0.0429 µM); MIC [9]: 0.025 µg/mL (≈ 0.0824 µM); MIC [10]: 0.2 µg/mL (≈ 0.659 µM); MIC [11]: 0.025 µg/mL (≈ 0.0824 µM)
CC(=O)NCCSC1=C(C(=O)O)N2C(=O)C(C(C)O)C2C1 (stereo not drawn) [PS-3B, 3-(2-acetamidoethylthio)-6-(1-hydroxyethyl)-7-oxo-1-azabicyclo[3.2.0]hept-2-ene-2-carboxylic acid, reference compound]	0.07 (≈ 0.223 µM)	0.004 (≈ 0.0127 µM)	0.53 (≈ 1.69 µM)	0.001 (≈ 0.00318 µM)	0.27 (≈ 0.859 µM)	1.06 (≈ 3.37 µM)	0.07 (≈ 0.223 µM)	0.07 (≈ 0.223 µM)	1.06 (≈ 3.37 µM)	8.5 (≈ 27 µM)	0.53 (≈ 1.69 µM)	17 (≈ 54.1 µM)	17 (≈ 54.1 µM)	8.5 (≈ 27 µM)	0.27 (≈ 0.859 µM)	17 (≈ 54.1 µM)	34 (≈ 108 µM)	0.004 (≈ 0.0127 µM)	2.13 (≈ 6.78 µM)	2.13 (≈ 6.78 µM)	MIC [8]: 0.07 µg/mL (≈ 0.223 µM); MIC [9]: 0.13 µg/mL (≈ 0.414 µM); MIC [10]: 0.13 µg/mL (≈ 0.414 µM); MIC [11]: 0.07 µg/mL (≈ 0.223 µM)

Further compounds by falling MIC (Alcaligenes faecalis A 1), results first:

MIC (Alcaligenes faecalis A 1) [µg/mL]	MIC [1] [µg/mL]	MIC [2] [µg/mL]	MIC [3] [µg/mL]	MIC [4] [µg/mL]	MIC (Enterobacter cloacae 45) [µg/mL]	MIC (Enterobacter sp. E8) [µg/mL]	MIC (Escherichia coli K-12) [µg/mL]	MIC (Escherichia coli RGN 823) [µg/mL]	MIC [5] [µg/mL]	MIC (Proteus mirabilis P6) [µg/mL]	MIC (Proteus rettgeri P7) [µg/mL]	MIC (Proteus sp. P22) [µg/mL]	MIC (Proteus vulgaris GN76) [µg/mL]	MIC (Providencia sp. P8) [µg/mL]	MIC [6] [µg/mL]	MIC [7] [µg/mL]	MIC (Sarcina lutea) [µg/mL]	MIC (Serratia marcescens S18) [µg/mL]	MIC (Serratia marcescens T55) [µg/mL]	Structure (SMILES)	other results
6.25 (≈ 20.4 µM)	< 0.007	6.25 (≈ 20.4 µM)	< 0.007	6.25 (≈ 20.4 µM)	12.5 (≈ 40.8 µM)	0.78 (≈ 2.55 µM)	0.39 (≈ 1.27 µM)	3.13 (≈ 10.2 µM)	25 (≈ 81.6 µM)	0.39 (≈ 1.27 µM)	3.13 (≈ 10.2 µM)	12.5 (≈ 40.8 µM)	12.5 (≈ 40.8 µM)	0.2 (≈ 0.653 µM)	12.5 (≈ 40.8 µM)	50 (≈ 163 µM)	< 0.007	12.5 (≈ 40.8 µM)	25 (≈ 81.6 µM)	CC(O)C1C(=O)N2C(C(=O)O)=C(Sc3ccccn3)CC12 (stereo not drawn)	MIC [8]: < 0.007 µg/mL; MIC [9]: 0.013 µg/mL (≈ 0.0424 µM); MIC [10]: 0.013 µg/mL (≈ 0.0424 µM); MIC [11]: 0.05 µg/mL (≈ 0.163 µM)
1.56 (≈ 5.75 µM)	0.39 (≈ 1.44 µM)	12.5 (≈ 46.1 µM)	0.05 (≈ 0.184 µM)	12.5 (≈ 46.1 µM)	25 (≈ 92.1 µM)	12.5 (≈ 46.1 µM)	12.5 (≈ 46.1 µM)	12.5 (≈ 46.1 µM)	12.5 (≈ 46.1 µM)	25 (≈ 92.1 µM)	12.5 (≈ 46.1 µM)	50 (≈ 184 µM)	25 (≈ 92.1 µM)	6.25 (≈ 23 µM)	12.5 (≈ 46.1 µM)	25 (≈ 92.1 µM)	0.39 (≈ 1.44 µM)	12.5 (≈ 46.1 µM)	50 (≈ 184 µM)	CC(C)C1C(=O)N2C(C(=O)O)=C(SCCO)CC12 (stereo not drawn) [R1 --CH3, R21 --CH2 CH2 OH]	MIC [8]: 0.2 µg/mL (≈ 0.737 µM); MIC [9]: 0.39 µg/mL (≈ 1.44 µM); MIC [10]: 0.39 µg/mL (≈ 1.44 µM); MIC [11]: 0.39 µg/mL (≈ 1.44 µM)
1.56	0.1	3.13	0.025	3.13	6.25	3.13	3.13	12.5	12.5	12.5	12.5	50	25	3.13	12.5	12.5	0.1	6.25	12.5	CCC1C(=O)N2C(C(=O)O)=C(SCCO)CC12 (stereo not drawn) [R1 H, R21 --CH2 CH2 OH, sodium 3-(2-hydroxyethylthio)-6-ethyl-7-oxo-1-azabicylo[3.2.0]hept-2-ene-2-carboxylate]	MIC [8]: 0.05 µg/mL; MIC [9]: 0.2 µg/mL; MIC [10]: 0.1 µg/mL; MIC [11]: 0.2 µg/mL
